Test results from patent US10336702B2, “Pharmaceutically active compounds” (BERGENBIO ASA, priority 2015, dated 2019).

Key:
[1] = molecular target: T1, Akt2 (Homo sapiens, UniProt P31751); assay: Akt activation assay (PDK1-mediated activation, LANCE Ultra crosstide TR-FRET), Akt2; format: biochemical; details: read-out: Biological Assay 1 IC50 (nM) Akt2
T1 construct: unspecified tag, removed (detagged) (cleaved yes); purchased SignalChem and Proteros (Akt2); Merck Millipore (PDK1) 14-452 (PDK1); none given for Akt2
T1 sequence (P31751 whole entry): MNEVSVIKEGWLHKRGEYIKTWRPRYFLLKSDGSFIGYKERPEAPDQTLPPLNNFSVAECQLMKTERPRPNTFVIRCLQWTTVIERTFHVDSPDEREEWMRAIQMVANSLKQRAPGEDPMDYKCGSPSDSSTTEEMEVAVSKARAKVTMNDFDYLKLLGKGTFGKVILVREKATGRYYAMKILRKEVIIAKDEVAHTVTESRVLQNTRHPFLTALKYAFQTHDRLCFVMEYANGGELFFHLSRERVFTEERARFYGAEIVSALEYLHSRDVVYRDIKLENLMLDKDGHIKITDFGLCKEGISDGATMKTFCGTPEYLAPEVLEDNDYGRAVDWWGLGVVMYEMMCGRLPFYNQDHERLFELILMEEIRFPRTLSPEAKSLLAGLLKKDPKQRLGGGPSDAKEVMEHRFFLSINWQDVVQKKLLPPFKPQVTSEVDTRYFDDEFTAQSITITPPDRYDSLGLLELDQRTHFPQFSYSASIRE
Summary of the method: (§1)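 TR-FRET read-out (665/615 nm ratio) after Eu-anti-phospho-crosstide antibody, 1 h. Reaction: compound preincubated with Akt isoform, then 5 nM PDK1, lipid vesicles with 0.55 μM PtdIns(3,4,5)P3, 100 μM ATP, 100 nM crosstide, 30 min, EDTA stop. IC50 from 4-parameter equation.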

[2] = molecular target: T2, Akt3 (Homo sapiens, UniProt Q9Y243); assay: Akt activation assay (PDK1-mediated activation, LANCE Ultra crosstide TR-FRET), Akt3; format: biochemical; details: read-out: Biological Assay 1 IC50 (nM) Akt3
T2 construct: unspecified tag, removed (detagged) (cleaved yes); purchased SignalChem and Proteros (Akt3); Merck Millipore (PDK1) 14-452 (PDK1); none given for Akt3
T2 sequence (Q9Y243 whole entry): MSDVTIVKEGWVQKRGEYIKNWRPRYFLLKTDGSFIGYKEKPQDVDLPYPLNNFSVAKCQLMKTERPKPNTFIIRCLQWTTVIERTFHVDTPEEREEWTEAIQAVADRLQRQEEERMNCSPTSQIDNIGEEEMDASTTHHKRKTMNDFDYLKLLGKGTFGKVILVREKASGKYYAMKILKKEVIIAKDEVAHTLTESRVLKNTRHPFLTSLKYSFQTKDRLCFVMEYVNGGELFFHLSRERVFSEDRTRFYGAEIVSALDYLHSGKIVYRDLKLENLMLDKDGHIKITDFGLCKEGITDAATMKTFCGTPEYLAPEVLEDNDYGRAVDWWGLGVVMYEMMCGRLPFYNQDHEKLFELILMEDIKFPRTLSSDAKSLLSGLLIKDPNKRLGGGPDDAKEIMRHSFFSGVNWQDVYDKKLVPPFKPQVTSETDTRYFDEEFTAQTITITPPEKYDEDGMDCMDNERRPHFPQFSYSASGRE
Summary of the method: as §1

[3] = molecular target: T3, p-Akt3 in WM115 cells (Homo sapiens, UniProt Q9Y243); assay: Phospho-Akt cellular SureFire assay, p-Akt3 in WM115 cells; format: cell-based; details: insulin stimulated, read-out: Biological Assay 2 IC50 (nM) Akt3 WM115
T3 construct: SureFire assays to detect cellular p-Akt1, p-Akt2 and p-Akt3 levels in WM115 cells (Akt2/3) and LNCaP cells (Akt1); endogenous in cells; host or cells: WM115 (ECACC 91061232), insulin-stimulated
T3 sequence (Q9Y243 whole entry): as above
Summary of the method: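 pThr308-Akt3 in lysates was quantified by bead-proximity SureFire detection, pairing a phospho-specific antibody with a total Akt3 antibody. Before lysis, WM115 cells in 0.1% FBS medium were treated for 15 min at 37 °C with compound (final DMSO 0.3%), following a 10 min stimulation with 100 nM insulin. IC50 was obtained by 4-parameter fitting.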

[4] = molecular target: T4, p-Akt2 in WM115 cells (Homo sapiens, UniProt P31751); assay: Phospho-Akt cellular SureFire assay, p-Akt2 in WM115 cells; format: cell-based; details: insulin stimulated, read-out: Biological Assay 2 IC50 (nM) Akt2 WM115
T4 construct: SureFire assays to detect cellular p-Akt1, p-Akt2 and p-Akt3 levels in WM115 cells (Akt2/3) and LNCaP cells (Akt1); endogenous in cells; host or cells: WM115 (ECACC 91061232), insulin-stimulated
T4 sequence (P31751 whole entry): as the sequence (P31751 whole entry) above
Summary of the method: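 Readout is a bead-proximity SureFire assay pairing a pThr308 Akt antibody with a total Akt2 antibody, lysate and beads incubated 2 h plus 2 h at room temperature in the dark. Before lysis, serum-starved WM115 cells received 100 nM insulin (10 min), then test compound (15 min, 0.3% DMSO); IC50 by 4-parameter equation.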

[5] = molecular target: T5, p-Akt1 in LNCaP cells (Homo sapiens, UniProt P31749); assay: Phospho-Akt cellular SureFire assay, p-Akt1 in LNCaP cells; format: cell-based; details: read-out: Biological Assay 2 IC50 (nM) Akt1 LNCaP
T5 construct: SureFire assays to detect cellular p-Akt1, p-Akt2 and p-Akt3 levels in WM115 cells (Akt2/3) and LNCaP cells (Akt1); endogenous in cells; host or cells: LNCaP (ECACC 89110211)
T5 sequence (P31749 whole entry): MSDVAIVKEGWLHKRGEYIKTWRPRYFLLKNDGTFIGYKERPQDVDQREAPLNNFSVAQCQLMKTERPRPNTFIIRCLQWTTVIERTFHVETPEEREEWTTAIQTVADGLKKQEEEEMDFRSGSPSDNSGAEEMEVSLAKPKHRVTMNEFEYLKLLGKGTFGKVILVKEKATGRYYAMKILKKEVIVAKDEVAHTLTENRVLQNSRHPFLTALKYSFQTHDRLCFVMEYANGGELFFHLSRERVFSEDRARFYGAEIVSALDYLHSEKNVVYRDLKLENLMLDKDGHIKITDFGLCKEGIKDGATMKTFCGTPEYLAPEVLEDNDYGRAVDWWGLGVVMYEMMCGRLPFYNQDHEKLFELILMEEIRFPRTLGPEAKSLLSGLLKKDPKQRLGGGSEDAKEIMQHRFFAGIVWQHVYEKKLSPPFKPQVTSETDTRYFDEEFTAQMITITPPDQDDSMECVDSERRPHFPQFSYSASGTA
Summary of the method: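 Phospho-Thr308 Akt1 detected by AlphaScreen SureFire proximity beads in LNCaP lysates after 15 min compound treatment at 37 °C in 0.1% FBS medium, unstimulated, 0.3% DMSO. Cells plated at 5×10^4/well overnight; IC50 from a 4-parameter equation.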

[6] = molecular target: T6, Akt1 (Homo sapiens, UniProt P31749); assay: Akt activation assay (PDK1-mediated activation, LANCE Ultra crosstide TR-FRET), Akt1; format: biochemical; details: read-out: Biological Assay 1 IC50 (nM) Akt1
T6 construct: unspecified tag, removed (detagged) (cleaved yes); purchased SignalChem and Proteros (Akt1); Merck Millipore (PDK1) 14-452 (PDK1); none given for Akt1
T6 sequence (P31749 whole entry): as above
Summary of the method: as §1

| Structure (SMILES) | IC50 [1] [nM] | IC50 [2] [nM] | IC50 [3] [nM] | IC50 [4] [nM] | IC50 [5] [nM] | IC50 [6] [nM] |
| --- | --- | --- | --- | --- | --- | --- |
| COC(=O)N(C)[C@H]1CC[C@H](CC(=O)Nc2cc(-c3ccccc3)c(-c3ccc(C4(N)CCC4)cc3)cn2)CC1 [Example A61, Methyl (trans-4-(2-((5-(4-(1-aminocyclobutyl)phenyl)-4-phenylpyridin-2-yl)amino)-2-oxoethyl)cyclohexyl)(methyl)carbamate] | 1300 | 77 | 910 | > 27000 | > 30000 | > 30000 |
| CC(=O)N(C)[C@H]1CC[C@H](CC(=O)Nc2cc(-c3ccccc3F)c(-c3ccc(C4(N)CCC4)cc3)cn2)CC1 [Example A62, N-(5-(4-(1-aminocyclobutyl)phenyl)-4-(2-fluorophenyl)pyridin-2-yl)-2-(trans-4-(N-methylacetamido)cyclohexyl)acetamide] | 1100 | 57 | 81 | 1200 | 7100 | > 30000 |
| COC(=O)N(C)[C@H]1CC[C@H](CC(=O)Nc2cc(-c3ccccc3F)c(-c3ccc(C4(N)CCC4)cc3)cn2)CC1 [Example A63, Methyl (trans-4-(2-((5-(4-(1-aminocyclobutyl)phenyl)-4-(2-fluorophenyl)pyridin-2-yl)amino)-2-oxoethyl)cyclohexyl)(methyl)carbamate] | 5700 | 120 | 470 | 6100 | > 30000 | > 30000 |
| CC(=O)N(C)[C@H]1CC[C@H](CC(=O)Nc2cc(-c3ccsc3)c(-c3ccc(C4(N)CCC4)cc3)cn2)CC1 [Example A64, N-(5-(4-(1-aminocyclobutyl)phenyl)-4-(thiophen-3-yl)pyridin-2-yl)-2-(trans-4-(N-methylacetamido)cyclohexyl)acetamide] | 1400 | 30 | 85 | 1400 | > 30000 | > 30000 |
| NC1(c2ccc(-c3cnc(NC(=O)C[C@H]4CC[C@H](N5CCOC5=O)CC4)cc3-c3ccccc3F)cc2)CCC1 [Example A65, N-(5-(4-(1-aminocyclobutyl)phenyl)-4-(2-fluorophenyl)pyridin-2-yl)-2-(trans-4-(2-oxooxazolidin-3-yl)cyclohexyl)acetamide] | 270 | 17 | 37 | 570 | > 30000 | > 30000 |
| COC(=O)N(C)[C@H]1CC[C@H](CC(=O)Nc2cnc(-c3ccc(C(C)(C)N)cc3)c(-c3ccsc3)c2)CC1 [Example A67, Methyl (trans-4-(2-((6-(4-(2-aminopropan-2-yl)phenyl)-5-(thiophen-3-yl)pyridin-3-yl)amino)-2-oxoethyl)cyclohexyl)(methyl)carbamate] | 8900 | 200 | 830 | > 30000 | > 30000 | > 30000 |
| COC(=O)N(C)[C@H]1CC[C@H](CC(=O)Nc2cc(-c3ccsc3)c(-c3ccc(C(C)(C)N)cc3)nn2)CC1 [Example A69, Methyl (trans-4-(2-((6-(4-(2-aminopropan-2-yl)phenyl)-5-(thiophen-3-yl)pyridazin-3-yl)amino)-2-oxoethyl)cyclohexyl)(methyl)carbamate] | 12000 | 220 | 710 | > 30000 | > 30000 | > 30000 |
| COC(=O)N(C)[C@H]1CC[C@H](CC(=O)Nc2cc(-c3ccsc3)c(-c3ccc([C@]4(N)C[C@H](F)C4)cc3)nn2)CC1 [Example A70, Methyl (trans-4-(2-((6-(4-(trans-1-amino-3-fluorocyclobutyl)phenyl)-5-(thiophen-3-yl)pyridazin-3-yl)amino)-2-oxoethyl)cyclohexyl)(methyl)carbamate] | 1100 | 36 | 960 | > 28000 | > 30000 | > 30000 |
| NC1(c2ccc(-c3cnc(NC(=O)C[C@H]4CC[C@H](N5CCCC5=O)CC4)cc3-c3ccccc3)cc2)CCC1 [Example A71, N-(5-(4-(1-aminocyclobutyl)phenyl)-4-phenylpyridin-2-yl)-2-(trans-4-(2-oxopyrrolidin-1-yl)cyclohexyl)acetamide] | 110 | 15 | 130 | 1500 | 3400 | 7500 |
| CCOC(=O)N(C)[C@H]1CC[C@H](CC(=O)Nc2cc(-c3ccccc3)c(-c3ccc([C@]4(N)C[C@](C)(O)C4)cc3)cn2)CC1 [Example A73, Ethyl (trans-4-(2-((5-(4-(trans-1-amino-3-hydroxy-3-methylcyclobutyl)phenyl)-4-phenylpyridin-2-yl)amino)-2-oxoethyl)cyclohexyl)(methyl)carbamate] | 130 | 7 | 77 | 1200 | 2900 | 8800 |
| CN(C(=O)C1CC1)[C@H]1CC[C@H](CC(=O)Nc2cc(-c3ccccc3)c(-c3ccc([C@]4(N)C[C@](C)(O)C4)cc3)cn2)CC1 [Example A75, N-(trans-4-(2-((5-(4-(trans-1-amino-3-hydroxy-3-methylcyclobutyl)phenyl)-4-phenylpyridin-2-yl)amino)-2-oxoethyl)cyclohexyl)-N-methylcyclopropanecarboxamide] | 140 | 6 | 13 | 320 | 1400 | 12000 |
| CN(C(=O)C1CC1)[C@H]1CC[C@H](CC(=O)Nc2cc(-c3ccccc3)c(-c3ccc([C@]4(N)C[C@](C)(O)C4)cc3)nn2)CC1 [Example A78, N-(trans-4-(2-((6-(4-(trans-1-amino-3-hydroxy-3-methylcyclobutyl)phenyl)-5-phenylpyridazin-3-yl)amino)-2-oxoethyl)cyclohexyl)-N-methylcyclopropanecarboxamide] | 71 | 4 | 8 | 370 | 1400 | 1900 |
| CC(C)C(=O)N(C)[C@H]1CC[C@H](CC(=O)Nc2cc(-c3ccccc3)c(-c3ccc([C@]4(N)C[C@](C)(O)C4)cc3)nn2)CC1 [Example A79, N-(trans-4-(2-((6-(4-(trans-1-amino-3-hydroxy-3-methylcyclobutyl)phenyl)-5-phenylpyridazin-3-yl)amino)-2-oxoethyl)cyclohexyl)-N-methylisobutyramide] | 63 | 4 | 10 | 370 | 1900 | 3900 |
| CCOC(=O)N(C)[C@H]1CC[C@H](CC(=O)Nc2cc(-c3ccccc3)c(-c3ccc([C@]4(N)C[C@](C)(O)C4)cc3)nn2)CC1 [Example A80, Ethyl (trans-4-(2-((6-(4-(trans-1-amino-3-hydroxy-3-methylcyclobutyl)phenyl)-5-phenylpyridazin-3-yl)amino)-2-oxoethyl)cyclohexyl)(methyl)carbamate] | 74 | 4 | 10 | 710 | 2400 | 2400 |
| CCC(=O)N(C)[C@H]1CC[C@H](CC(=O)Nc2cc(-c3ccccc3)c(-c3ccc(C4(N)CC4)cc3)cn2)CC1 [Example A81, N-(trans-4-(2-((5-(4-(1-aminocyclopropyl)phenyl)-4-phenylpyridin-2-yl)amino)-2-oxoethyl)cyclohexyl)-N-methylpropionamide] | 1200 | 69 | 390 | 9100 | > 30000 | > 30000 |
